From US20200239420A1, “MODULATORS OF INDOLEAMINE 2,3-DIOXYGENASE” (GLAXOSMITHKLINE INTELLECTUAL PROPERTY DEVELOPMENT LIMITED, priority 2017, published 2020) come the findings set out here.

The structures appear in SMILES notation.

A short description of data set [1]: Rat PK. The conditions noted are these: male Han Wistar rats, n = 3. The data set is classed as in vivo.
Data set [2] deals with human peripheral blood mononuclear cells (PBMC). Description: PBMC cytotoxicity assay (CellTiter-Glo). It is filed as cell-based. The conditions noted are these: 48 h; IFN-γ/LPS-stimulated human PBMC, 2 days, CellTiter-Glo cytotoxicity (pCC50); read-out: PBMC TOX pIC50 (converted). As for the experimental part: (§1) Compounds of the present invention were tested via high-throughput cellular assays utilizing detection of kynurenine via mass spectrometry and cytotoxicity as end-points. For the mass spectrometry and cytotoxicity assays, human peripheral blood mononuclear cells (PBMC) (PB003F; AllCells®, Alameda, Calif.) were stimulated with human interferon-γ (IFN-γ) (Sigma-Aldrich Corporation, St. Louis, Mo.) and lipopolysaccharide from Salmonella minnesota (LPS) (Invivogen, San Diego, Calif.) to induce the expression of indoleamine 2, 3-dioxygenase (IDO1). Compounds with IDO1 inhibitory properties decreased the amount of kynurenine produced by the cells via the tryptophan catabolic pathway. Cellular toxicity due to the effect of compound treatment was measured using CellTiter-Glo® reagent (CTG) (Promega Corporation, Madison, Wis.), which is based on luminescent detection of ATP, an indicator of metabolically active cells.
(§2) In preparation for the assays, test compounds were serially diluted 3-fold in DMSO from a typical top concentration of 1 mM or 5 mM and plated at 0.5 μL in 384-well, polystyrene, clear bottom, tissue culture treated plates with lids (Greiner Bio-One, Kremsmünster, Austria) to generate 11-point dose response curves. Low control wells (0% kynurenine or 100% cytotoxicity) contained either 0.5 μL of DMSO in the presence of unstimulated (−IFN-γ/−LPS) PBMCs for the mass spectrometry assay or 0.5 μL of DMSO in the absence of cells for the cytotoxicity assay, and high control wells (100% kynurenine or 0% cytotoxicity) contained 0.5 μL of DMSO in the presence of stimulated (+IFN-γ/+LPS) PBMCs for both the mass spectrometry and cytotoxicity assays.
(§3) Frozen stocks of PBMCs were washed and recovered in RPMI 1640 medium (Thermo Fisher Scientific, Inc., Waltham, Mass.) supplemented with 10% v/v heat-inactivated fetal bovine serum (FBS) (Thermo Fisher Scientific, Inc., Waltham, Mass.), and 1× penicillin-streptomyci antibiotic solution (Thermo Fisher Scientific, Inc., Waltham, Mass.). The cells were diluted to 1,000,000 cells/mL in the supplemented RPMI 1640 medium. 50 μL of either the cell suspension, for the mass spectrometry assay, or medium alone, for the cytotoxicity assay, were added to the low control wells, on the previously prepared 384-well compound plates, resulting in 50,000 cells/well or 0 cells/well respectively. IFN-γ and LPS were added to the remaining cell suspension at final concentrations of 100 ng/ml and 50 ng/ml respectively, and 50 μL of the stimulated cells were added to all remaining wells on the 384-well compound plates. The plates, with lids, were then placed in a 37 °C, 5% CO2 humidified incubator for 2 days.
(§4) Following incubation, the 384-well plates were removed from the incubator and allowed to equilibrate to room temperature for 30 minutes. For the cytotoxicity assay, CellTiter-Glo® was prepared according to the manufacturer's instructions, and 40 μL were added to each plate well. After a twenty-minute incubation at room temperature, luminescence was read on an EnVision® Multilabel Reader (PerkinElmer Inc., Waltham, Mass.). For the mass spectrometry assay, 10 μL of supernatant from each well of the compound-treated plates were added to 40 μL of acetonitrile, containing 10 μM of an internal standard for normalization, in 384-well, polypropylene, V-bottom plates (Greiner Bio-One, Kremsmünster, Austria) to extract the organic analytes. Following centrifugation at 2000 rpm for 10 minutes, 10 μL from each well of the acetonitrile extraction plates were added to 90 μL of sterile, distilled H2O in 384-well, polypropylene, V-bottom plates for analysis of kynurenine and the internal standard on the RapidFire 300 (Agilent Technologies, Santa Clara, Calif.) and 4000 QTRAP MS (SCIEX, Framingham, Mass.). MS data were integrated using Agilent Technologies' RapidFire Integrator software, and data were normalized for analysis as a ratio of kynurenine to the internal standard. […]
For orientation: ATP-based viability assays read luminescence as a measure of living cells.

Data set [3] concerns the target T1, indoleamine 2, 3-dioxygenase (IDO1) (Homo sapiens, UniProt P14902).
T1 construct: to induce the expression of indoleamine 2, 3-dioxygenase (IDO1); host or cells: human PBMC stimulated with IFN-gamma and LPS
Description: IDO1 PBMC RapidFire MS assay (kynurenine detection). The data set is classed as cell-based. As to conditions: IFN-γ/LPS-stimulated human PBMC, 2 days, kynurenine by mass spectrometry; read-out: PBMC pIC50 (converted). Here is the method:
as §1, §2, §3, §4

T1 sequence (P14902 whole entry): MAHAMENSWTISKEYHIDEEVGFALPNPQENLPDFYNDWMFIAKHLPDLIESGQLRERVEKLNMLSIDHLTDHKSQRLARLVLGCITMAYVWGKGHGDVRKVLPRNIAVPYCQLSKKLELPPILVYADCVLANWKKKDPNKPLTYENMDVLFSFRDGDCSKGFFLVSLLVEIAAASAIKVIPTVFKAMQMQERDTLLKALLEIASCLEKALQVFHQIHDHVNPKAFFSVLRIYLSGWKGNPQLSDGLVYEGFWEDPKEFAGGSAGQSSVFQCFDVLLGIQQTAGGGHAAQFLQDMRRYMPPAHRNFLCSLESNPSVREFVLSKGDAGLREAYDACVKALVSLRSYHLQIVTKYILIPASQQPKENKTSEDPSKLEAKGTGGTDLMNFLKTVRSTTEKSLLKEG

One may read the AUC(0-inf) as total exposure, with the tail of the curve extrapolated. A low value points to low exposure. Broadly, the AUC(0-t) is exposure summed from dosing to a finite time, without extrapolation to infinity. Low readings indicate less exposure, high ones more exposure. For orientation: MRT inf means a mean duration of stay, worked out from the concentration-time curve. The term clearance denotes the volume of plasma or blood freed of the substance per unit of time. As a reminder, the half-life is how long it takes for the measured level to halve. A lower half-life goes with rapid decline. One may read the Cmax as the maximum level reached in the sampled fluid or tissue. Usually Tmax stands for the time from dosing to the highest level. For the compound `O=C(Nc1ccc(Cl)cc1)[C@@H]1C[C@]12CC[C@H](c1ccnc3ccccc31)CC2` (relative stereo) [Example 1, cis-N-(4-chlorophenyl)-6-(quinolin-4-yl)spiro[2.5]octane-1-carboxamide], the F in data set [1] (PO, 3 mg/kg) is 60.2%. In data set [1] (rat, in vivo, IV, 1 mg/kg), this compound gave an AUC(0-inf) of 4660 ng·h/mL, an AUC(0-t) of 4450 ng·h/mL, an MRT inf of 7.35 h and a clearance of 3.58 mL/min/kg. Further, the half-life in data set [1] (rat, in vivo, IV, 1 mg/kg) is 5.36 h. Further, in data set [1] (rat, in vivo, IV, 1 mg/kg, read-out: Vss), the Vd came out at 1.58 L/kg. Moreover, in data set [1] (rat, in vivo, PO, 3 mg/kg), the AUC(0-inf) is 14000 ng·h/mL, the AUC(0-t) worked out at 12300 ng·h/mL, the concentration peaked (Cmax) at 1000 ng/mL and the Tmax amounted to 1 h. Further, in data set [1] (rat, in vivo, PO, 3 mg/kg), the half-life was 7.16 h. Also, the IC50 in data set [2] is > 10000 nM. The IC50 in data set [3] is 63.1 nM.
As to `O=C(Nc1ccc(Cl)cc1)[C@@H]1C[C@]12CC[C@@H](c1ccnc3ccccc31)CC2` (relative stereo) [Example 2, trans-N-(4-chlorophenyl)-6-(quinolin-4-yl)spiro[2.5]octane-1-carboxamide], the values for the IC50 in data set [2] and in data set [3] were > 10000 nM and 126 nM, respectively.
In the case of `O=C(NC1CC2(CCC(c3ccnc4ccccc34)CC2)C1)c1ccc(Cl)s1` (centres unmarked) [Example 4, 5-chloro-N-(7-(quinolin-4-yl)spiro[3.5]nonan-2-yl)thiophene-2-carboxamide], in data set [1] (rat, in vivo, PO, 3 mg/kg), the AUC(0-inf) amounted to 15500 ng·h/mL, the AUC(0-t) worked out at 14400 ng·h/mL, the peak level (Cmax) was 1140 ng/mL and the Tmax is 3 h. The compound further gave a half-life in data set [1] (rat, in vivo, PO, 3 mg/kg) of 5.89 h. Besides, the IC50 in data set [2] is > 10000 nM. Moreover, the IC50 in data set [3] was 20 nM.
On to `O=C(NC1CC2(CCC(c3ccnc4ccccc34)CC2)C1)c1ccc(Cl)cc1` (centres unmarked) [Example 3, 4-chloro-N-(7-(quinolin-4-yl)spiro[3.5]nonan-2-yl)benzamide], for which the values for the IC50 in data set [2] and in data set [3] were > 10000 nM and 79.4 nM, respectively.
For `O=C(CC1CC2(CCC(c3ccnc4ccccc34)CC2)C1)Nc1ccc(Cl)cc1` (centres unmarked) [Example 5, N-(4-chlorophenyl)-2-(7-(quinolin-4-yl)spiro[3.5]nonan-2-yl)acetamide], the IC50 in data set [2] was > 10000 nM; in data set [3] it was 63.1 nM.
The like results for `O=C(Nc1ccc(Cl)cc1)C1CC2(CCC(c3ccnc4ccc(F)cc34)CC2)C1` (centres unmarked) [Example 6, N-(4-chlorophenyl)-7-(6-fluoroquinolin-4-yl)spiro[3.5]nonane-2-carboxamide] were, in that order, > 10000 nM and 15.8 nM.
